Here are results for 21 molecules from US11191762B2, “Alkyl substituted triazole compounds as agonists of the APJ Receptor” (priority 2016, dated 2021).

For the first assay, the target named is human APJ receptor (Homo sapiens (Human), UniProt P35414). In words: biochemical. It counts as biochemical.
human APJ receptor, sequence (P35414 whole entry): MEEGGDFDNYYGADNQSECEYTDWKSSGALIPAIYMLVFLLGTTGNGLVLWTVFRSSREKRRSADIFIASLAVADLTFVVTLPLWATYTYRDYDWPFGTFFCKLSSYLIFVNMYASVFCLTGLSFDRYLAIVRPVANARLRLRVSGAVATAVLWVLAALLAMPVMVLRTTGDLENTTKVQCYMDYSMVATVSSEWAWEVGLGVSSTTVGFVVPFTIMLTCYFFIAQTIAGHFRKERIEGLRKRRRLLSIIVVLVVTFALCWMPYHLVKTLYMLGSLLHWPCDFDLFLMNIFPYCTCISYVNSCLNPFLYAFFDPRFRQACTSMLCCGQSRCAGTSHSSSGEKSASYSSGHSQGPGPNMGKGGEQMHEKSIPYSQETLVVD
Details: not given
As to the method: The human APJ receptor was cloned by polymerase chain reaction and the gene encoding the receptor was subcloned in pFLAG-CMV™-3 expression vector (Sigma, Saint Louis, Mo. USA) in-house at Amgen. A GTPγS binding assay was performed on membranes prepared from CHO cells stably expressing human APJ receptor. The optimum experimental conditions for the concentrations of GDP, MgCl2, and NaCl in the assay buffer were initially determined. The assay was performed in 9 μL assay buffer [20 mM HEPES, pH 7.5, 5 mM MgCl2, 100 mM NaCl and 0.1% (w/v) BSA], 1 μL of diluted test compound (starting with 0.75 mM, 2-fold serial dilution with DMSO, total 22 points), 10 μL of 18 µM GDP (final concentration of 3 μM GDP), 20 μL of […] membrane protein expressing human APJ receptor captured with WGA PS beads (final concentration of 5 μg per well), and 20 μL of 0.3 nM [^35S]GTPγS (final concentration is 0.1 nM [^35S]GTPγS)(Perkin Elmer Life and Analytical Sciences, Waltham USA).
In turn, `COc1cccc(OC)c1-n1c(COC(F)F)nnc1NS(=O)(=O)[C@@H](C)[C@H](OC)c1ncc(Cl)cn1` [Example 65.0, (1R,2S)-1-(5-chloro-2-pyrimidinyl)-N-(5-((difluoromethoxy)methyl)-4-(2,6-dimethoxyphenyl)-4H-1,2,4-triazol-3-yl)-1-methoxy-2-propanesulfonamide] registered an EC50 of 5.7 nM.

The assay is the same for the next values; noted with them: [35S]GTPγS binding, membranes from CHO cells stably expressing human APJ receptor; read-out: Activity hAPJ SPA EC50 IP.
On to `COc1cccc(OC)c1-n1c(Cn2ccccc2=O)nnc1NS(=O)(=O)[C@@H](C)[C@H](C)c1ncc(Cl)cn1` [Example 42.0, (2S,3R)-3-(5-chloro-2-pyrimidinyl)-N-(4-(2,6-dimethoxyphenyl)-5-((2-oxo-1(2H)-pyridinyl)methyl)-4H-1,2,4-triazol-3-yl)-2-butanesulfonamide], for which the EC50 was determined as 330 nM.
On the same count and under the same terms, for `COc1cccc(OC)c1-n1c(NS(=O)(=O)[C@@H](C)[C@H](C)c2ncc(Cl)cn2)nnc1[C@@H](O)c1ccccc1` [Example 13.0, (2S,3R)-3-(5-chloro-2-pyrimidinyl)-N-(4-(2,6-dimethoxyphenyl)-5-((S)-hydroxy(phenyl)methyl)-4H-1,2,4-triazol-3-yl)-2-butanesulfonamide] the value was 110 nM.
Take `COc1ncnc(OC)c1-n1c(CC(C)(C)C)nnc1NS(=O)(=O)[C@@H](C)[C@H](C)c1ncc(Cl)cn1` [Example 1.0, (2S,3R)-3-(5-chloro-2-pyrimidinyl)-N-(4-(4,6-dimethoxy-5-pyrimidinyl)-5-(2,2-dimethylpropyl)-4H-1,2,4-triazol-3-yl)-2-butanesulfonamide]: the half-maximal effective concentration (EC50) is 240 nM.
Turning to `COc1cccc(OC)c1-n1c(Cc2ccccn2)nnc1NS(=O)(=O)[C@@H](C)[C@H](C)c1ncc(Cl)cn1` [Example 35.0, (2S,3R)-3-(5-chloro-2-pyrimidinyl)-N-(4-(2,6-dimethoxyphenyl)-5-(2-pyridinylmethyl)-4H-1,2,4-triazol-3-yl)-2-butanesulfonamide], the EC50 was found to be 32 nM.
The same measure, in the same setting: to `COCc1nnc(NS(=O)(=O)[C@@H](C)[C@H](OC)c2ncc(Cl)cn2)n1C(C)C` [Example 144.0] belongs 1200 nM.
`COc1ncnc(OC)c1-n1c(CC2CCCC2)nnc1NS(=O)(=O)[C@@H](C)[C@H](OC)c1ncc(Cl)cn1` [Example 28.0, (1R,2S)-1-(5-chloro-2-pyrimidinyl)-N-(5-(cyclopentylmethyl)-4-(4,6-dimethoxy-5-pyrimidinyl)-4H-1,2,4-triazol-3-yl)-1-methoxy-2-propanesulfonamide]: the EC50 was found to be 4.5 nM.
On the same count and under the same terms, to `COCCn1c(COC)nnc1NS(=O)(=O)[C@@H](C)[C@H](OC)c1ncc(Cl)cn1` [Example 156.0] belongs 520 nM; to `COCc1nnc(NS(=O)(=O)[C@@H](C)[C@H](C)c2ncc(Cl)cn2)n1-c1cc(OC)ccc1Cl` [Example 162.0], 24 nM.
Same read-out and setting: for `COc1ncnc(OC)c1-n1c(Cc2ccccc2)nnc1NS(=O)(=O)[C@@H](C)[C@H](C)c1ncc(C)cn1` [Example 23.0, (2S,3R)-N-(5-benzyl-4-(4,6-dimethoxy-5-pyrimidinyl)-4H-1,2,4-triazol-3-yl)-3-(5-methyl-2-pyrimidinyl)-2-butanesulfonamide] the value was 400 nM.
The same measure, in the same setting: for `COCCc1nnc(NS(=O)(=O)[C@@H](C)[C@H](C)c2ncc(Cl)cn2)n1-c1c(OC)cccc1OC` [Example 32.0, (2S,3R)-3-(5-chloro-2-pyrimidinyl)-N-(4-(2,6-dimethoxyphenyl)-5-(2-methoxyethyl)-4H-1,2,4-triazol-3-yl)-2-butanesulfonamide] the value was 10 nM; for “(1R.2S)-1-(5-chloropyrimidin-2-yl)-1-methoxy-N-(4-(1-methylcyclopropyl)-5-(((R)-tetrahydrofuran-2-yl)methyl)-4H-1,2,4-triazol-3-yl)propane-2-sulfonamide or (1R,2S)-1-(5-chloropyrimidin-2-yl)-1-methoxy-N-(4-(1-methylcyclopropyl)-5-(((S)-tetrahydrofuran-2-yl)methyl)-4H-1,2,4-triazol-3-yl)propane-2-sulfonamide [Example 57.0]”, 42 nM.
Turning to `COCc1nnc(NS(=O)(=O)[C@@H](C)[C@@H](OC(C)C)c2ncc(Cl)cn2)n1-c1c(OC)ncnc1OC` [Example 134.0], the EC50 was determined as 12 nM.
In the case of `COc1cccc(OC)c1-n1c(C[C@@H]2CCCO2)nnc1NS(=O)(=O)[C@@H](C)[C@H](C)c1ncc(Cl)cn1` (mixture of isomers) [Example 46.0, (2S,3R)-3-(5-chloro-2-pyrimidinyl)-N-(4-(2,6-dimethoxyphenyl)-5-((2R)-tetrahydro-2-furanylmethyl)-4H-1,2,4-triazol-3-yl)-2-butanesulfonamide and (2S,3R)-3-(5-chloro-2-pyrimidinyl)-N-(4-(2,6-dimethoxyphenyl)-5-((2S)-tetrahydro-2-furanylmethyl)-4H-1,2,4-triazol-3-yl)-2-butanesulfonamide], the EC50 was found to be 330 nM.
On the same count and under the same terms, for `COc1cccc(OC)c1-n1c(NS(=O)(=O)[C@@H](C)[C@H](C)c2ncc(C)cn2)nnc1C(F)(F)c1ccccn1` [Example 137.0] the value was 230 nM; for “(1R,2S)-1-(5-chloropyrimidin-2-yl)-1-methoxy-N-(4-(1-methylaclopropyl)-5-(((R)-tetrahydrofurcan-2-yl)methyl)-4H-l,2,4-triazol-3-yl)propane-2-sulfonainide or (1R,2S)-1-(5-chloroprimidin-2-yl)-1-methoxy-N-(4-(1-methylcyclopropyl)-5-(((S)-tetrahydrofuran-2-yl)methyl)-4H-l,2.4-triazol-3-yl)propane-2-sulfonamide [Example 56.0]”, 420 nM.
On the same count and under the same terms, to `COc1cccc(OC)c1-n1c(Cc2ccncc2)nnc1NS(=O)(=O)[C@@H](C)[C@H](C)c1ncc(Cl)cn1` [Example 45.0, (2S,3R)-3-(5-chloro-2-pyrimidinyl)-N-(4-(2,6-dimethoxyphenyl)-5-(4-pyridinylmethyl)-4H-1,2,4-triazol-3-yl)-2-butanesulfonamide] belongs 1.7 nM.
On the same count and under the same terms, to `COc1cccc(OC)c1-n1c(Cc2ccccc2)nnc1NS(=O)(=O)[C@@H](C)[C@H](C)c1ncc(Cl)cn1` [Example 14.0, (2S,3R)-N-(5-benzyl-4-(2,6-dimethoxyphenyl)-4H-1,2,4-triazol-3-yl)-3-(5-chloro-2-pyrimidinyl)-2-butanesulfonamide] belongs 4.6 nM; to `COc1ncnc(OC)c1-n1c(Cc2ccccc2)nnc1NS(=O)(=O)[C@@H](C)[C@H](C)c1ncc(Cl)cn1` [Example 21.0, (2S,3R)-N-(5-benzyl-4-(4,6-dimethoxy-5-pyrimidinyl)-4H-1,2,4-triazol-3-yl)-3-(5-chloro-2-pyrimidinyl)-2-butanesulfonamide], 120 nM.

The assay is the same for the next values; noted with them: read-out: Activity hAPJ SPA EC50 IP.
As to `CCO[C@H](c1ncc(C)cn1)[C@H](C)S(=O)(=O)Nc1nnc(COC)n1-c1c(OC)cccc1OC` [Example 73.0, (1R,2S)-N-(4-(2,6-dimethoxyphenyl)-5-(methoxymethyl)-4H-1,2,4-triazol-3-yl)-1-ethoxy-1-(5-methylpyrimidin-2-yl)propane-2-sulfonamide], the 50% effective concentration (EC50) worked out at 37.5 nM.
Same read-out and setting: to `COc1cccc(OC)c1-n1c(CO)nnc1NS(=O)(=O)[C@@H](C)[C@H](OC)c1ncc(Cl)cn1` [Example 64.0, (1R,2S)-1-(5-chloropyrimidin-2-yl)-N-(4-(2,6-dimethoxyphenyl)-5-(hydroxymethyl)-4H-1.2.4-triazol-3-yl)-1-methoxypropane-2-sulfonamide] belongs 20 nM.
